Assay results published in article PMC7586935 (Journal of Clinical Pharmacology, 2020).

Tests used:
healthy volunteers [1] = assay: Safety assessment: treatment-emergent adverse events; assay type: in vivo, human; conditions: moxifloxacin 400 mg, one subject
healthy volunteers [2] = assay: ECG outlier analyses; assay type: in vivo, human; conditions: moxifloxacin 400 mg, n = 18
[3] = tested on: QT/QTc interval of healthy volunteers; assay: Concentration-QTc
healthy volunteers [4] = assay: ECG morphological analyses; assay type: in vivo, human; conditions: moxifloxacin 400 mg, n = 18
[5] = Plasma pharmacokinetics after single oral dose; assay type: in vivo; conditions: human, oral, 400 mg

In the case of COc1c(N2C[C@@H]3CCCN[C@@H]3C2)c(F)cc2c(=O)c(C(=O)O)cn(C3CC3)c12 [Moxifloxacin], the “Somnolence, frequency of subjects” value (healthy volunteers [1]) is reported as 5.6%, the “Heart rate: Bradycardic outliers” value (healthy volunteers [2]) is reported as 0 n (%) and the “Heart rate: Tachycardic outliers” value (healthy volunteers [2]) is reported as 1 (6) n (%). For the same molecule, the “PR interval: Outliers” value (healthy volunteers [2]) was 0 n (%), the “QRS interval: Outliers” value (healthy volunteers [2]) was 0 n (%) and the “QTcF >30‐60 ms inc change from baseline” value (healthy volunteers [2]) was 2 (11) n (%). For the same molecule, the “QTcF >60 ms inc change from baseline” value (healthy volunteers [2]) was 0 n (%), the “QTcF New >480 ms” value (healthy volunteers [2]) was 0 n (%) and the “QTcF New >500 ms” value (healthy volunteers [2]) was 0 n (%). The “Predicted Mean Effect at Mean Cmax (placebo-corrected change from baseline QTcF, ΔΔQTcF)” value ([3]; moxifloxacin 400 mg, mean Cmax 2758.3 ng/mL) was 15.2 ms, the “Slope of placebo-adjusted change from baseline QTcF vs plasma concentration” value ([3]; moxifloxacin plasma concentration, assay sensitivity) was 4.24 ms/[μg/mL] and the “New ST‐segment depression changes” value (healthy volunteers [4]) was 1 (6) n (%). The “New ST‐segment elevation changes” value (healthy volunteers [4]) was 0 n (%), the New atrial fibrillation (healthy volunteers [4]) was 0 n (%) and the New atrial flutter (healthy volunteers [4]) was 0 n (%). For the same molecule, the “New second‐degree heart block” value (healthy volunteers [4]) was 0 n (%), the “New third‐degree heart block” value (healthy volunteers [4]) was 0 n (%) and the AUC [5] was 24700 ± 5240 ng·h/mL. It also gave a Cmax [5] of 2760 ± 559 ng/mL and a Tmax [5] of 1 h.
